The source made the active and inactive calls. No cut-off for these calls is given here. Numbered stars: 1 amine (or outer) side, 2 acyl side, 3 side chain; on linkers, the order of the positions; unused ones are H or OH. Square brackets hold non-standard residues; d marks the D form. Peptide text beside a SMILES is read from it. * marks the point of attachment. X17 = CC(=O)N(CCCC[C@H](N[*:1])C(=O)[*:2])C1CC2CCC1C2; X5 = O=C([C@H](CCCCNC1C2CC3CC(C2)CC1C3)N[*:1])[*:2]; X3 = CN(C)C(NCCCC[C@H](N[*:1])C(=O)[*:2])=[N+](C)C; X15 = O=C([C@H](CCCCNC1CN2CCC1CC2)N[*:1])[*:2]; X14 = CCCN(CCCC[C@H](N[*:1])C(=O)[*:2])C(C)C; X8 = O=C([C@H](CCCCNC1CC2CCC1C2)N[*:1])[*:2]; Phe(4-CH2NH2) = NCc1ccc(C[C@H](N)C(=O)O)cc1; X19 = CN(CCCC[C@H](N[*:1])C(=O)[*:2])C1CNC1; Acetyl(2-naphthyl) = O=C(Cc1ccc2ccccc2c1)*; Lys(Et,iPr) = CCN(CCCC[C@H](N)C(=O)O)C(C)C; Benzoyl(4-tBu) = CC(C)(C)c1ccc(C(=O)*)cc1; Lys(Et2) = CCN(CC)CCCC[C@H](N)C(=O)O; Benzoyl(4-OMe) = COc1ccc(C(=O)*)cc1; Benzoyl(4-Me) = Cc1ccc(C(=O)*)cc1; X18 = O=C(Cc1c[nH]c2ccccc12)*; X2 = Cc1cccc(C(=O)*)c1; Boc = CC(C)(C)OC(=O)*; X1 = Cc1ccccc1C(=O)*; Bz = O=C(c1ccccc1)*
Tests used:
[1] = molecular target: Chromobox protein homolog 5 (Homo sapiens, UniProt P45973); assay: Antagonist activity at recombinant human N-terminal His-tagged CBX5 chromodomain (18 to 75 residues) expressed in Escherichia coli Rosetta BL21(DE3)pLysS using ARTKQTARK(Me3)STGGKAPRKQL-K(Biotin)-NH2 measured after 30 mins by AlphaScreen assay
[2] = molecular target: T1, Chromobox protein homolog 7 (Homo sapiens, UniProt O95931); assay: Antagonist activity at recombinant human C-terminal His-tagged CBX7 chromodomain (8 to 62 residues) expressed in Escherichia coli Rosetta BL21(DE3)pLysS using biotin-labeled UNC4195 measured after 30 mins by AlphaScreen assay
T1 sequence (O95931 whole entry): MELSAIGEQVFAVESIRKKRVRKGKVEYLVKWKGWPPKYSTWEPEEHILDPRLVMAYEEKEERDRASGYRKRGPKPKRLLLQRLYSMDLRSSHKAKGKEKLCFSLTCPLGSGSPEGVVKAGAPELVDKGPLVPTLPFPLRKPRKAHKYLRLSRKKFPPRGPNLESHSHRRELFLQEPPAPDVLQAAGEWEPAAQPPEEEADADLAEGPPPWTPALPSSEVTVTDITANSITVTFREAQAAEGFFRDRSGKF

[3] = molecular target: T2, Chromobox protein homolog 8 (Homo sapiens, UniProt Q9HC52); assay: Antagonist activity at recombinant human N-terminal His-tagged CBX8 chromodomain (8 to 61 residues) expressed in Escherichia coli Rosetta BL21(DE3)pLysS using biotin-labeled UNC4195 measured after 30 mins by AlphaScreen assay
T2 sequence (Q9HC52 whole entry): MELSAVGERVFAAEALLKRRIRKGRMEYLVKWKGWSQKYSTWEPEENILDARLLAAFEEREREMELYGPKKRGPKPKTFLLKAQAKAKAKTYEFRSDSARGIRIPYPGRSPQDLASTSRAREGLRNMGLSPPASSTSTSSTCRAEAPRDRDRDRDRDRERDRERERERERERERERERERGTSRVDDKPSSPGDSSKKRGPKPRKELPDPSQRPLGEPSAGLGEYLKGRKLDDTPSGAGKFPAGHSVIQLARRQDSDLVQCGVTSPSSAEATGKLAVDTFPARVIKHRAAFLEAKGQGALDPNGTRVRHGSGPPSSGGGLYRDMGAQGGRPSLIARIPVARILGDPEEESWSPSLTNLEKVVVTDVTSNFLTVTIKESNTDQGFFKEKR

[4] = molecular target: T3, Chromodomain Y-like protein 2 (Homo sapiens, UniProt Q8N8U2); assay: Antagonist activity at recombinant human C-terminal His-tagged CDYL2 chromodomain (1 to 75 residues) expressed in Escherichia coli Rosetta BL21(DE3)pLysS using biotin-labeled UNC4195 measured after 30 mins by AlphaScreen assay
T3 sequence (Q8N8U2 whole entry): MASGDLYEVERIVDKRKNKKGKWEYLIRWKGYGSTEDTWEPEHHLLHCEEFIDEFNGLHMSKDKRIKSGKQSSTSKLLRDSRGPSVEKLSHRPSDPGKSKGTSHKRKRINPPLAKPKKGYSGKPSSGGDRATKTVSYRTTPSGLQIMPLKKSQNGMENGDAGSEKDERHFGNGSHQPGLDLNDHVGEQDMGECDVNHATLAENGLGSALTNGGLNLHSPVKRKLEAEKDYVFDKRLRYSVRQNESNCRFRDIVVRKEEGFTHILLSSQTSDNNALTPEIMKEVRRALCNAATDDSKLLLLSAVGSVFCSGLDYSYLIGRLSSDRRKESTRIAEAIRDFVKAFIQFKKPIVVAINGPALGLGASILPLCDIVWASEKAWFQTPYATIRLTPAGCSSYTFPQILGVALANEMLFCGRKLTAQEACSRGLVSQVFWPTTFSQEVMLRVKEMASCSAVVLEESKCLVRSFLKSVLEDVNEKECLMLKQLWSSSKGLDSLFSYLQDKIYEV

[5] = molecular target: T4, E3 SUMO-protein ligase CBX4 (Homo sapiens, UniProt O00257); assay: Antagonist activity at recombinant human N-terminal His-tagged CBX4 chromodomain (8 to 65 residues) expressed in Escherichia coli Rosetta BL21(DE3)pLysS using biotin-labeled UNC4195 measured after 30 mins by AlphaScreen assay
T4 sequence (O00257 whole entry): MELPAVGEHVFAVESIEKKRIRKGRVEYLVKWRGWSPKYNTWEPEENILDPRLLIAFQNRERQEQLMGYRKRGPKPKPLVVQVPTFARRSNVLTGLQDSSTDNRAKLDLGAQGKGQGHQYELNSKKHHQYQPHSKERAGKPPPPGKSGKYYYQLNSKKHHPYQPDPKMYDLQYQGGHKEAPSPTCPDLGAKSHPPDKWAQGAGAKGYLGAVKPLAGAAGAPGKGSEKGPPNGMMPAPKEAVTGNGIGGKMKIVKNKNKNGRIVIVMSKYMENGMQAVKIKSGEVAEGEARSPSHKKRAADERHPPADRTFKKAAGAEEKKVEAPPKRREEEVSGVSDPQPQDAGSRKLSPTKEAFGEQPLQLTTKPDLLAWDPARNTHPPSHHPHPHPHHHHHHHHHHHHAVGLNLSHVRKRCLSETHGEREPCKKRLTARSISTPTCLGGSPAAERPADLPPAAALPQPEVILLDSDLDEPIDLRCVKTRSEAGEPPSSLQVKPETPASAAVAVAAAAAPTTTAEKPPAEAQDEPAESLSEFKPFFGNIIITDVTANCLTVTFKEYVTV

[6] = molecular target: T5, Chromobox protein homolog 7 (Homo sapiens) (UniProt O95931); assay: Binding affinity to recombinant human C-terminal His-tagged CBX7 chromodomain (8 to 62 residues) expressed in Escherichia coli Rosetta BL21(DE3)pLysS by SPR method
T5 sequence (whole entry): T1 sequence (O95931 whole entry)

Chain of Chromobox protein homolog 5 (P45973 whole entry, the tested form may be a part): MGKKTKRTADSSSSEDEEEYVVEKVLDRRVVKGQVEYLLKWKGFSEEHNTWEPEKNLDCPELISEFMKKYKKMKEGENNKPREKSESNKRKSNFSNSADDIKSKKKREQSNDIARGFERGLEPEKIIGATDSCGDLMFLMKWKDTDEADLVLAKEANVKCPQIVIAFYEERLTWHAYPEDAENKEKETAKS

Structure (SMILES)	IC50 [1]	IC50 [2]	IC50 [3]	IC50 [4]	IC50 [5]	Activity [6]
CCN(CC)CCCC[C@H](NC(=O)[C@H](CC(C)C)NC(=O)[C@H](C)NC(=O)[C@H](Cc1ccccc1)NC(=O)Cc1c[nH]c2ccccc12)C(=O)N[C@@H](CO)C(=O)OC (X18-FAL[Lys(Et2)]S-OMe)	> 60 µM	1.7 µM	15 µM	0.11 µM	–	–
CCN(CC)CCCC[C@H](NC(=O)[C@H](CC(C)C)NC(=O)[C@H](C)NC(=O)[C@H](Cc1ccccc1)NC(=O)c1ccc(OC)cc1)C(=O)N[C@@H](CO)C(=O)OC ({Benzoyl(4-OMe)}-FAL[Lys(Et2)]S-OMe)	12 µM	0.25 µM	3.3 µM	0.26 µM	0.75 µM	–
CCN(CC)CCCC[C@H](NC(=O)[C@H](CC(C)C)NC(=O)[C@H](C)NC(=O)[C@H](Cc1ccccc1)NC(=O)Cc1ccc2ccccc2c1)C(=O)N[C@@H](CO)C(=O)OC ({Acetyl(2-naphthyl)}-FAL[Lys(Et2)]S-OMe)	> 60 µM	1.1 µM	24 µM	0.084 µM	5.2 µM	–
COC(=O)[C@H](CO)NC(=O)[C@H](CCCCNC1C2CC3CC(C2)CC1C3)NC(=O)[C@H](CC(C)C)NC(=O)[C@H](C)NC(=O)[C@H](Cc1ccccc1)NC(=O)CNC(=O)c1ccccc1 (stereo partly specified) (Bz-GFAL[X5]S-OMe)	> 60 µM	> 60 µM	> 60 µM	14 µM	> 60 µM	–
COC(=O)[C@H](CO)NC(=O)[C@H](CCCCNC1CN2CCC1CC2)NC(=O)[C@H](CC(C)C)NC(=O)[C@H](C)NC(=O)[C@H](Cc1ccccc1)NC(=O)CNC(=O)c1ccccc1 (stereo partly specified) (Bz-GFAL[X15]S-OMe)	> 60 µM	> 60 µM	> 60 µM	24 µM	> 60 µM	–
CCN(CC)CCCC[C@H](NC(=O)[C@H](CC(C)C)NC(=O)[C@H](C)NC(=O)[C@H](Cc1ccccc1)NC(=O)c1ccc(C)cc1)C(=O)N[C@@H](CO)C(=O)OC ({Benzoyl(4-Me)}-FAL[Lys(Et2)]S-OMe)	–	–	–	–	–	Active
COC(=O)[C@H](CO)NC(=O)[C@H](CCCCN(C)C1CNC1)NC(=O)[C@H](CC(C)C)NC(=O)[C@H](C)NC(=O)[C@H](Cc1ccccc1)NC(=O)CNC(=O)c1ccccc1 (Bz-GFAL[X19]S-OMe)	> 60 µM	> 60 µM	> 60 µM	8.6 µM	> 60 µM	–
CCN(CC)CCCC[C@H](NC(=O)[C@H](CC(C)C)NC(=O)[C@H](C)NC(=O)[C@H](Cc1ccc(CN)cc1)NC(=O)c1ccc(C(C)(C)C)cc1)C(=O)N[C@@H](CO)C(=O)OC ({Benzoyl(4-tBu)}-[Phe(4-CH2NH2)]AL[Lys(Et2)]S-OMe)	53 µM	0.063 µM	2.4 µM	0.075 µM	–	–
COC(=O)[C@H](CO)NC(=O)[C@H](CCCCNC(N(C)C)=[N+](C)C)NC(=O)[C@H](CC(C)C)NC(=O)[C@H](C)NC(=O)[C@H](Cc1ccccc1)NC(=O)CNC(=O)c1ccccc1 (Bz-GFAL[X3]S-OMe)	> 60 µM	> 60 µM	> 60 µM	–	> 60 µM	–
CCN(CCCC[C@H](NC(=O)[C@H](CC(C)C)NC(=O)[C@H](C)NC(=O)[C@H](Cc1ccccc1)NC(=O)c1ccc(C(C)(C)C)cc1)C(=O)N[C@@H](CO)C(=O)OC)C(C)C ({Benzoyl(4-tBu)}-FAL[Lys(Et,iPr)]S-OMe)	> 60 µM	–	1 µM	–	–	–
CCN(CC)CCCC[C@H](NC(=O)[C@H](CC(C)C)NC(=O)[C@H](C)NC(=O)[C@H](Cc1ccccc1)NC(=O)c1cccc(C)c1)C(=O)N[C@@H](CO)C(=O)OC (X2-FAL[Lys(Et2)]S-OMe)	–	–	–	–	–	Active
CCN(CC)CCCC[C@H](NC(=O)[C@H](CC(C)C)NC(=O)[C@H](C)NC(=O)[C@H](Cc1ccccc1)NC(=O)c1ccccc1C)C(=O)N[C@@H](CO)C(=O)OC (X1-FAL[Lys(Et2)]S-OMe)	–	–	–	–	–	Active
CCN(CC)CCCC[C@H](NC(=O)[C@H](CC(C)C)NC(=O)[C@H](C)NC(=O)[C@H](Cc1ccc(CNC(=O)OC(C)(C)C)cc1)NC(=O)c1ccc(C(C)(C)C)cc1)C(=O)N[C@@H](CO)C(=O)OC ({Benzoyl(4-tBu)}-[Phe(4-CH2NH2)](Boc)AL[Lys(Et2)]S-OMe)	44 µM	0.056 µM	1.7 µM	0.16 µM	–	–
COC(=O)[C@H](CO)NC(=O)[C@H](CCCCNC1CC2CCC1C2)NC(=O)[C@H](CC(C)C)NC(=O)[C@H](C)NC(=O)[C@H](Cc1ccccc1)NC(=O)CNC(=O)c1ccccc1 (stereo partly specified) (Bz-GFAL[X8]S-OMe)	> 60 µM	51 µM	> 60 µM	5 µM	> 60 µM	–
CCCN(CCCC[C@H](NC(=O)[C@H](CC(C)C)NC(=O)[C@H](C)NC(=O)[C@H](Cc1ccccc1)NC(=O)c1ccc(C(C)(C)C)cc1)C(=O)N[C@@H](CO)C(=O)OC)C(C)C ({Benzoyl(4-tBu)}-FAL[X14]S-OMe)	> 60 µM	0.032 µM	–	0.11 µM	0.062 µM	–
CCN(CC)CCCC[C@H](NC(=O)[C@H](CC(C)C)NC(=O)[C@H](C)NC(=O)[C@H](Cc1ccccc1)NC(=O)CNC(=O)c1ccccc1)C(=O)N[C@@H](CO)C(=O)OC (Bz-GFAL[Lys(Et2)]S-OMe)	–	–	–	–	46 µM	–
COC(=O)[C@H](CO)NC(=O)[C@H](CCCCN(C(C)=O)C1CC2CCC1C2)NC(=O)[C@H](CC(C)C)NC(=O)[C@H](C)NC(=O)[C@H](Cc1ccccc1)NC(=O)CNC(=O)c1ccccc1 (stereo partly specified) (Bz-GFAL[X17]S-OMe)	> 60 µM	> 60 µM	> 60 µM	38 µM	> 60 µM	–

From ChEMBL document CHEMBL3856243, “Structure-Activity Relationships and Kinetic Studies of Peptidic Antagonists of CBX Chromodomains” (J Med Chem, 2016)
